Data from the supplement of paper PMC10307832.

Experiments:
Assay in all cases: relative viability (nuclei count vs DMSO), 5 days (fraction); higher = more cells survive
VX-702 + OSI-027 = compound: NC(=O)c1ccc(N(C(N)=O)c2c(F)cccc2F)nc1-c1ccc(F)cc1F [VX-702] + COc1cccc2cc(-c3nc([C@H]4CC[C@H](C(=O)O)CC4)n4ncnc(N)c34)[nH]c12 [OSI-027] (partner 0.5 µM)
Outline: (§1)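 Relative viability was taken as the ratio of nuclei in treated wells to nuclei in vehicle wells. Lung cancer cell lines in 1536-well plates received compounds by pin tool one day after seeding, either one drug alone or a fixed anchor-drug dose plus five library-drug doses (not always all listed) in √10 steps. Nuclei were counted on 4× images after 5 days of treatment, and values are medians of duplicate plates.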

Dabrafenib + Tozasertib = compound: CC(C)(C)c1nc(-c2cccc(NS(=O)(=O)c3c(F)cccc3F)c2F)c(-c2ccnc(N)n2)s1 [Dabrafenib] + Cc1cc(Nc2cc(N3CCN(C)CC3)nc(Sc3ccc(NC(=O)C4CC4)cc3)n2)n[nH]1 [Tozasertib] (partner 0.1 µM)
Outline: as §1

VX-702 + AZD7762 = compound: NC(=O)c1ccc(N(C(N)=O)c2c(F)cccc2F)nc1-c1ccc(F)cc1F [VX-702] + NC(=O)Nc1cc(-c2cccc(F)c2)sc1C(=O)N[C@H]1CCCNC1 [AZD7762] (partner 0.2 µM)
Outline: as §1

VX-702 + Tozasertib = compound: NC(=O)c1ccc(N(C(N)=O)c2c(F)cccc2F)nc1-c1ccc(F)cc1F [VX-702] + Cc1cc(Nc2cc(N3CCN(C)CC3)nc(Sc3ccc(NC(=O)C4CC4)cc3)n2)n[nH]1 [Tozasertib] (partner 0.1 µM)
Outline: as §1

Dabrafenib + Vorinostat = compound: CC(C)(C)c1nc(-c2cccc(NS(=O)(=O)c3c(F)cccc3F)c2F)c(-c2ccnc(N)n2)s1 [Dabrafenib] + O=C(CCCCCCC(=O)Nc1ccccc1)NO [Vorinostat] (partner 1 µM)
Outline: as §1

SW 900 was tested. Which relative viability (VX-702 + OSI-027; first compound 0.02 µM) did it give?
Its relative viability is 0.565.

What about the relative viability (VX-702 + OSI-027; first compound 0.2 µM) of the same cell line?
The relative viability was 0.676.

What about the relative viability (VX-702 + OSI-027; first compound 0.6325 µM) of the same cell line?
Its relative viability is 0.592.

And the relative viability (VX-702 + OSI-027; first compound 2 µM)?
Its relative viability is 0.765.

What about the relative viability (Dabrafenib + Tozasertib; first compound 0.009487 µM) of the same cell line?
Its relative viability is 0.711.

And the relative viability (Dabrafenib + Tozasertib; first compound 0.03 µM)?
The relative viability was 0.527.

And the relative viability (Dabrafenib + Tozasertib; first compound 0.3 µM)?
The relative viability was 0.632.

What about the relative viability (VX-702 + AZD7762; first compound 0.02 µM) of the same cell line?
Its relative viability is 0.611.

What about the relative viability (VX-702 + AZD7762; first compound 0.2 µM) of the same cell line?
Its relative viability is 0.502.

And the relative viability (VX-702 + AZD7762; first compound 0.6325 µM)?
The relative viability was 0.492.

And the relative viability (VX-702 + AZD7762; first compound 2 µM)?
Its relative viability is 0.572.

And the relative viability (VX-702 + Tozasertib; first compound 0.02 µM)?
The relative viability was 0.87.

What about the relative viability (VX-702 + Tozasertib; first compound 0.2 µM) of the same cell line?
The relative viability was 0.494.

And the relative viability (VX-702 + Tozasertib; first compound 0.6325 µM)?
The relative viability was 0.621.

And the relative viability (VX-702 + Tozasertib; first compound 2 µM)?
Its relative viability is 0.636.

And the relative viability (Dabrafenib + Vorinostat; first compound 0.009487 µM)?
The relative viability was 0.455.

What about the relative viability (Dabrafenib + Vorinostat; first compound 0.09487 µM) of the same cell line?
The relative viability was 0.714.

What about the relative viability (Dabrafenib + Vorinostat; first compound 0.3 µM) of the same cell line?
Its relative viability is 0.596.
